# Measurements taken from the supplement of paper PMC11451515.
# Tested on: SEM cells
# Test: cell viability relative to DMSO control; higher = less cytotoxic
# Details: 48 h
# In short: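 NOMO1 or SEM (500 cells/well) or P12-Ichikawa (1000 cells/well) leukemia cells were adapted for at least four passages in each medium. They were seeded in 1536-well plates (5 μl) and pin-dosed with library compounds in DMSO over an 11-point threefold series, 47 μM to 0.79 nM. CellTiter-Glo One luminescence was read after 48 h at 37°C. Viability is the per-plate percentage relative to DMSO wells, with cell-free wells as background.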
# [1] = HPLM + 10% dialyzed FBS, 0.000781 µM
# [2] = HPLM + 10% dialyzed FBS, 0.00234 µM
# [3] = HPLM + 10% dialyzed FBS, 0.00702 µM
# [4] = HPLM + 10% dialyzed FBS, 0.0211 µM
# [5] = HPLM + 10% dialyzed FBS, 0.0632 µM
# [6] = HPLM + 10% dialyzed FBS, 0.19 µM
# [7] = HPLM + 10% dialyzed FBS, 0.569 µM
# [8] = HPLM + 10% dialyzed FBS, 1.71 µM
# [9] = HPLM + 10% dialyzed FBS, 5.12 µM
# [10] = HPLM + 10% dialyzed FBS, 15.4 µM
# [11] = HPLM + 10% dialyzed FBS, 46.1 µM
# [12] = RPMI 5 mM glucose + 10% FBS, 0.000781 µM
# [13] = RPMI 5 mM glucose + 10% FBS, 0.00234 µM
# [14] = RPMI 5 mM glucose + 10% FBS, 0.00702 µM
# [15] = RPMI 5 mM glucose + 10% FBS, 0.0211 µM
# [16] = RPMI 5 mM glucose + 10% FBS, 0.0632 µM
# [17] = RPMI 5 mM glucose + 10% FBS, 0.19 µM
# [18] = RPMI 5 mM glucose + 10% FBS, 0.569 µM
# [19] = RPMI 5 mM glucose + 10% FBS, 1.71 µM
# [20] = RPMI 5 mM glucose + 10% FBS, 5.12 µM
# [21] = RPMI 5 mM glucose + 10% FBS, 15.4 µM
# [22] = RPMI 5 mM glucose + 10% FBS, 46.1 µM
# [23] = RPMI 5 mM glucose + 10% dialyzed FBS, 0.000781 µM
# [24] = RPMI 5 mM glucose + 10% dialyzed FBS, 0.00234 µM
# [25] = RPMI 5 mM glucose + 10% dialyzed FBS, 0.00702 µM
# [26] = RPMI 5 mM glucose + 10% dialyzed FBS, 0.0211 µM
# [27] = RPMI 5 mM glucose + 10% dialyzed FBS, 0.0632 µM
# [28] = RPMI 5 mM glucose + 10% dialyzed FBS, 0.19 µM
# [29] = RPMI 5 mM glucose + 10% dialyzed FBS, 0.569 µM
# [30] = RPMI 5 mM glucose + 10% dialyzed FBS, 1.71 µM
# [31] = RPMI 5 mM glucose + 10% dialyzed FBS, 5.12 µM
# [32] = RPMI 5 mM glucose + 10% dialyzed FBS, 15.4 µM
# [33] = RPMI 5 mM glucose + 10% dialyzed FBS, 46.1 µM
Compound,cell viability [1] [%],cell viability [2] [%],cell viability [3] [%],cell viability [4] [%],cell viability [5] [%],cell viability [6] [%],cell viability [7] [%],cell viability [8] [%],cell viability [9] [%],cell viability [10] [%],cell viability [11] [%],cell viability [12] [%],cell viability [13] [%],cell viability [14] [%],cell viability [15] [%],cell viability [16] [%],cell viability [17] [%],cell viability [18] [%],cell viability [19] [%],cell viability [20] [%],cell viability [21] [%],cell viability [22] [%],cell viability [23] [%],cell viability [24] [%],cell viability [25] [%],cell viability [26] [%],cell viability [27] [%],cell viability [28] [%],cell viability [29] [%],cell viability [30] [%],cell viability [31] [%],cell viability [32] [%],cell viability [33] [%]
CNC[C@H](O)c1ccc(O)c(O)c1,90.5,85.8,71.9,73.9,77.3,17.6,63,68.7,61.3,70.5,53.1,104,97.3,85.6,73.1,102,30.8,87.9,83.7,79.8,90.7,82.4,104,111,85.8,83.3,93.3,28.2,86.5,95.3,89.5,82.1,68.9
OC[C@H]1OCC(O1)[N@@]2C=CC(N)=NC2=O (some centres not stated),108,81.3,90.7,106,115,103,107,99.3,96.3,102,96.6,73.1,62.4,77.8,77.5,78,84.2,80,64.4,70.7,63.8,56.3,96.7,95.8,96.3,106,113,110,114,103,106,101,88.8
CC(C)C(=O)Oc1ccc(CO)cc1[C@H](CCN(C(C)C)C(C)C)c1ccccc1,34.1,81.6,97.9,80.4,74.6,83.3,82.8,81,82.3,76.2,72.4,32.5,92.1,91.8,99.3,74.4,92.5,81.7,67.5,101,80.3,89.5,35.5,91.9,92.2,95.3,74.9,89.4,97.8,85.7,114,96.2,99.8
N#Cc1c(NC(=O)c2cccc3ccccc23)sc2c1CCCC2,108,115,116,125,125,105,66,23.2,24.1,19.7,23,119,119,130,125,119,119,48.4,20.3,16.9,15.6,17.9,122,125,126,137,124,118,53.7,25.5,26.2,18,26.1
COC1=C2OC(=O)\C=C/C2=CC3=C1OC=C3,121,117,129,126,124,123,121,115,116,107,93.4,,,,,,,,,,,,123,132,124,110,123,133,128,109,115,108,93.7
CNC(=O)c1ccc(N2C(=S)N(c3ccc(C#N)c(C(F)(F)F)c3)C(=O)C23CCC3)cc1F,87.3,98.8,95.9,19.5,92.3,97,97.8,95.2,101,96.9,97.3,84.7,83.4,104,14.2,83,98.3,99.3,91.7,86.7,98.3,96.3,84.3,83,104,15.8,102,101,96.3,96.9,98,96.3,111
CC/1=C(/N2[C@H](SC1)[C@H](NC(=O)[C@H](N)\C3=C\C\C=C/C3)C2=O)C(O)=O,79.3,87.2,94,86.5,82.9,97.1,95.8,91.2,93.5,111,102,95.8,106,120,98.1,115,120,111,118,107,113,120,88.8,112,98,87.4,109,117,114,107,124,114,113
O=C(c1ccc(Nc2nccc(-c3cc4ccccc4s3)n2)cc1)N1CCC(N2CCCC2)CC1,103,107,108,110,102,104,99.3,82.4,65.2,10.8,2.34,,,,,,,,,,,,105,120,98.2,118,106,114,108,97.9,69.3,28.2,2.16
C[N]1C=C(C2=C1C=CC=C2)\C3=C(\C(=O)NC3=O)C4=C5CC(CN)CC[N]5C6=C4C=CC=C6 (configuration not stated),88.4,97.6,92.2,107,75.4,102,108,99.5,86.3,19.3,3.63,100,108,98.1,107,66.6,111,95,86,79.1,31.8,3.05,89.9,108,105,107,86.1,95.8,111,107,88.4,38.6,7.7
O=c1[nH]c2ccccc2n1C1CCN(Cc2ccc(-c3nc4cc5nc[nH]c5cc4nc3-c3ccccc3)cc2)CC1,97.3,103,107,109,105,103,106,64.6,98.3,88.6,86.5,69.5,68.9,79.1,70.3,75.1,77.7,73.2,37.9,60.3,60.2,46.4,89.6,101,109,106,103,115,94.6,50.5,98.9,88.9,70.9
C[C@]12CCC(=O)C=C1CC[C@@H]1[C@@H]2CC[C@@]2(C)[C@H]1CC[C@]2(C)O,93.6,72.8,86.5,29.9,86.7,91.1,68.3,84.9,90.9,65.6,78.7,101,105,97.3,29.8,98.1,95.5,96.1,74.3,102,95.8,85.4,95.5,82.2,86.9,41.9,95.2,98.6,107,99.7,100,98.9,97.4
C/C=C1\C2C=C(C)CC1(N)c1ccc(=O)[nH]c1C2 (configuration not stated),103,108,120,109,28.9,94.2,98,106,102,68.1,98.7,105,113,109,99.6,18.2,103,106,114,104,88,96.4,103,106,114,113,39.9,115,114,108,104,85.6,98.2
NC(=O)c1ccc(I)c([N+](=O)[O-])c1,104,127,108,126,126,130,133,124,123,117,123,106,124,131,137,137,143,145,156,120,104,111,97.6,113,124,118,123,112,116,131,115,103,99.8
CC(C)C1=C(O)C=C(O)C(=C1)C/2=N/NC(=O)N2C3=CC4=C(C=C3)[N](C)C=C4,,,,,,,,,,,,123,112,116,101,72.5,22.7,25.2,20,23.6,20.7,15.4,113,112,111,114,75.2,34.2,29.6,23.8,25,25.3,22
CCn1c(-c2nonc2N)nc2cnc(Oc3cccc(NC(=O)c4ccc(OCCN5CCOCC5)cc4)c3)cc21,93.1,106,102,98.7,111,114,113,111,102,82.2,70.3,102,102,108,119,122,100,102,111,93.4,71.9,54.5,124,111,105,113,108,102,92.2,116,106,86.6,59.7
